Measured values reported in EP0050407A1, “3,5-Disubstituted-1,2,4-triazole compounds, processes for their preparation and pharmaceutical compositions containing them” (GLAXO GROUP LIMITED, priority 1980, dated 1982).
Where a name gives a salt, the structure may show the parent alone.

Key:
[1] = system: secretion of gastric acid; assay: perfused rat stomach test (inhibition of gastric acid secretion stimulated via histamine receptors); assay type: in vivo
From the text: Certain novel heterocyclic derivatives have now been found which have potent activity as H2-antagonists.

rats = assay: toxicity in rats; assay type: in vivo
[2] = administered intravenously to rats at doses of at least twice their ED50 values

Compound	ED50 [1] [mg/kg]	toxic effects (rats; administered orally to rats at a dose of 400 mg/kg)	toxic effects (rats; [2])
OCCc1n[nH]c(CCCCOc2cccc(CN3CCCCC3)c2)n1 [2(a), 5-[4-[3-(1-Piperidinylmethyl)phenoxy]butyl]-1H-1,2,4-triazole-3-(2-ethanol) maleate (1:2)]	< 0.63	–	–
CC(O)c1n[nH]c(CCCCOc2cccc(CN3CCCCC3)c2)n1 (stereo not shown) [2(e), 5-[4-[3-(1-piperidinylmethyl)phenoxy]butyl]-1H-1,2,4-triazole-3-(1-ethanol)oxalate (1:2)]	< 0.63	–	–
CC(=O)OCc1n[nH]c(CCCCOc2cccc(CN3CCCCC3)c2)n1 [Example 3, 5-[4-[3-(1-Piperidinylmethyl)phenoxy]butyl]-1H-1,2,4-triazole-3-methanol acetate(ester)fumarate]	< 0.63	–	–
OCc1n[nH]c(CCCCOc2cccc(CN3CCCCC3)c2)n1 [Example 6]	< 0.63	no toxic effects	–
CS(=O)(=O)Cc1n[nH]c(CCCCOc2cccc(CN3CCCCC3)c2)n1 [Example 7, 3-(Methylsulphonyl)methyl-5-[4-[3-(1-piperidinylmethyl)phenoxy]butyl]-lH-l,2,4-triazole]	< 0.63	–	no toxic effects
O=Cc1n[nH]c(CCCCOc2cccc(CN3CCCCC3)c2)n1 [Example 8, 5-[4-[3-(1-Piperidinylmethyl)phenoxy]butyl]-1H-1,2,4-triazole-3-carboxaldehyde hydrate]	< 0.63	–	–
ON=Cc1n[nH]c(CCCCOc2cccc(CN3CCCCC3)c2)n1 [Example 9, 5-[4-[3-(1-Piperidinylmethyl)phenoxy]butyl]-1H-1,2,4,- triazole-3-carboxaldehyde oxime]	< 0.63	–	no toxic effects
